Peptide text beside a SMILES is read from it.
Key:
Type in all cases: cell-based
[1] = system: erythrocyte suspensions of human blood; assay: Hemolytic activity, hemoglobin release; conditions: human blood erythrocytes 5% v/v, absorbance 540 nm, percentage compared to melittin, three replicates; for Hemolysis (%) at 50 µM: peptide 50 μM (table prints 50 µM); for Hemolysis (%) at 125 µM: peptide 125 μM (table prints 125 µM)
Protocol: The hemolytic activity of the compounds was evaluated at 50 and 125 μM by determining hemoglobin release from erythrocyte suspensions of human blood (5% v/v) (Oxoid) using absorbance at 540 nm, as previously described. Three replicates for each peptide concentration were used.

[2] = system: Xanthomonas axonopodis pv. vesicatoria 2133-2; conditions: Table S1, MIC range
Protocol: (§1) Erwinia amylovora PMV6076 (Institut National de la Recherche Agronomique, Angers, France), Pseudomonas syringae pv. syringae EPS94 (Institut de Tecnologia Agroalimentària, Universitat de Girona, Spain), and Xanthomonas axonopodis pv. vesicatoria 2133-2 (Instituto Valenciano de Investigaciones Agrarias, Valencia, Spain) were used as bacterial strains. They were stored and cultivated as previously described.
(§2) The minimum inhibitory concentration (MIC) was analyzed as previously described at 0.8, 1.6, 3.1, 6.2, 12.5, 25 and 50 μM [20].

[3] = system: Pseudomonas syringae pv. syringae EPS94; assay: Antibacterial activity (MIC), in vitro growth inhibition; conditions: Table S1, MIC range
Protocol: as §1, §2

Row | Structure (SMILES) | Hemolysis (%) at 50 µM [1] [%] | Hemolysis (%) at 125 µM [1] [%] | MIC Xav [2] [µM] | MIC Pss [3] [µM]
1 | CC(C)C[C@@H]1NC(=O)[C@H](CCCCN)NC(=O)[C@H](CCCCN)NC(=O)[C@H](Cc2c[nH]c3ccccc23)NC(=O)[C@H](CCCCN)NC(=O)[C@H](CCCCN)NC(=O)[C@H](CC(C)C)NC(=O)[C@H](CC(C)C)NC(=O)[C@H](CC(C)C)NC(=O)[C@H](CCC(N)=O)NC1=O [BPC188W, c(LLLKKWKKLQ)] (cyclo(KKLQLLLKKW)) | 33 | 48 | 12.5 to 25 | 6.2 to 12.5
2 | CC(C)C[C@@H]1NC(=O)[C@H](CCCCN)NC(=O)[C@H](Cc2c[nH]c3ccccc23)NC(=O)[C@H](CCCCN)NC(=O)[C@H](CCCCN)NC(=O)[C@H](CC(C)C)NC(=O)[C@H](CCCCN)NC(=O)[C@H](CC(C)C)NC(=O)[C@H](CCC(N)=O)NC(=O)[C@H](CCCCN)NC1=O [BPC124W, c(LKLKKWKLKQ)] (cyclo(KKWKLKQLKL)) | 2 | 2 | 3.1 to 6.2 | 6.2 to 12.5
3 | CC(C)C[C@@H]1NC(=O)[C@H](CCCCN)NC(=O)[C@H](Cc2c[nH]c3ccccc23)NC(=O)[C@H](CCCCN)NC(=O)[C@H](CC(C)C)NC(=O)[C@H](CCCCN)NC(=O)[C@H](CC(C)C)NC(=O)[C@H](CCCCN)NC(=O)[C@H](CCC(N)=O)NC(=O)[C@H](CCCCN)NC1=O [BPC016W, c(KLKLKWKLKQ)] (cyclo(KLKLKWKLKQ)) | 25 | 32 | 3.1 to 6.2 | 12.5 to 25
4 | CC(C)C[C@@H]1NC(=O)[C@H](CCCCN)NC(=O)[C@H](CCC(N)=O)NC(=O)[C@H](CCCCN)NC(=O)[C@H](CCCCN)NC(=O)[C@H](CCCCN)NC(=O)[C@H](Cc2c[nH]c3ccccc23)NC(=O)[C@H](CC(C)C)NC(=O)[C@H](CC(C)C)NC(=O)[C@H](CCCCN)NC1=O [BPC150W, c(KLKLLWKKKQ)] (cyclo(KKKQKLKLLW)) | 17 | 32 | 6.2 to 12.5 | 12.5 to 25
5 | CC(C)C[C@@H]1NC(=O)[C@H](CCCCN)NC(=O)[C@H](CCCCN)NC(=O)[C@H](Cc2c[nH]c3ccccc23)NC(=O)[C@H](CCCCN)NC(=O)[C@H](CC(C)C)NC(=O)[C@H](CC(C)C)NC(=O)[C@H](CC(C)C)NC(=O)[C@H](CC(C)C)NC(=O)[C@H](CCC(N)=O)NC1=O [BPC200W, c(LLLLKWKKLQ)] (cyclo(KKLQLLLLKW)) | 6 | 7 | 3.1 to 6.2 | > 50
6 | CC(C)C[C@@H]1NC(=O)[C@H](CCCCN)NC(=O)[C@H](Cc2c[nH]c3ccccc23)NC(=O)[C@H](CC(C)C)NC(=O)[C@H](CCCCN)NC(=O)[C@H](CC(C)C)NC(=O)[C@H](CCCCN)NC(=O)[C@H](CCCCN)NC(=O)[C@H](CCC(N)=O)NC(=O)[C@H](CCCCN)NC1=O [BPC112W, c(KKLKLWKLKQ)] (cyclo(KKLKLWKLKQ)) | 3 | 4 | 6.2 to 12.5 | 3.1 to 6.2
7 | CC(C)C[C@@H]1NC(=O)[C@H](CCC(N)=O)NC(=O)[C@H](CCCCN)NC(=O)[C@H](CCCCN)NC(=O)[C@H](CCCCN)NC(=O)[C@H](Cc2c[nH]c3ccccc23)NC(=O)[C@H](CCCCN)NC(=O)[C@H](CC(C)C)NC(=O)[C@H](CC(C)C)NC(=O)[C@H](CCCCN)NC1=O [BPC162W, c(LKLLKWKKKQ)] (cyclo(KKKQLKLLKW)) | 57 | 56 | 3.1 to 6.2 | 6.2 to 12.5
8 | CC(C)C[C@@H]1NC(=O)[C@H](Cc2c[nH]c3ccccc23)NC(=O)[C@H](CCCCN)NC(=O)[C@H](CCCCN)NC(=O)[C@H](CCCCN)NC(=O)[C@H](CCCCN)NC(=O)[C@H](CCCCN)NC(=O)[C@H](CCC(N)=O)NC(=O)[C@H](CC(C)C)NC(=O)[C@H](CC(C)C)NC1=O [BPC058W, c(KKKKKWLLLQ)] (cyclo(KKKKKWLLLQ)) | 2 | 3 | 25 to 50 | 12.5 to 25
9 | CC(C)C[C@@H]1NC(=O)[C@H](CCCCN)NC(=O)[C@H](CCC(N)=O)NC(=O)[C@H](CCCCN)NC(=O)[C@H](CCCCN)NC(=O)[C@H](CCCCN)NC(=O)[C@H](Cc2c[nH]c3ccccc23)NC(=O)[C@H](CCCCN)NC(=O)[C@H](CC(C)C)NC(=O)[C@H](CC(C)C)NC1=O [BPC160W, c(KLLLKWKKKQ)] (cyclo(KKKQKLLLKW)) | 3 | 6 | 6.2 to 12.5 | 6.2 to 12.5
10 | CC(C)C[C@@H]1NC(=O)[C@H](CCCCN)NC(=O)[C@H](CC(C)C)NC(=O)[C@H](CC(C)C)NC(=O)[C@H](CCC(N)=O)NC(=O)[C@H](CC(C)C)NC(=O)[C@H](CCCCN)NC(=O)[C@H](CCCCN)NC(=O)[C@H](Cc2c[nH]c3ccccc23)NC(=O)[C@H](CCCCN)NC1=O [BPC196W, c(LLKLKWKKLQ)] (cyclo(KKLQLLKLKW)) | 2 | 3 | 1.6 to 3.1 | 3.1 to 6.2
11 | CC(C)C[C@@H]1NC(=O)[C@H](CCC(N)=O)NC(=O)[C@H](CC(C)C)NC(=O)[C@H](CCCCN)NC(=O)[C@H](CCCCN)NC(=O)[C@H](Cc2c[nH]c3ccccc23)NC(=O)[C@H](CCCCN)NC(=O)[C@H](CC(C)C)NC(=O)[C@H](CCCCN)NC(=O)[C@H](CCCCN)NC1=O [BPC092W, c(LKKLKWKKLQ)] (cyclo(KKLKWKKLQL)) | 2 | 3 | 3.1 to 6.2 | 6.2 to 12.5
12 | CC(C)C[C@@H]1NC(=O)[C@H](CCC(N)=O)NC(=O)[C@H](CCCCN)NC(=O)[C@H](CCCCN)NC(=O)[C@H](CCCCN)NC(=O)[C@H](Cc2c[nH]c3ccccc23)NC(=O)[C@H](CC(C)C)NC(=O)[C@H](CC(C)C)NC(=O)[C@H](CCCCN)NC(=O)[C@H](CCCCN)NC1=O [BPC152W, c(LKKLLWKKKQ)] (cyclo(KKKQLKKLLW)) | 1 | 3 | 6.2 to 12.5 | 6.2 to 12.5
13 | CC(C)C[C@@H]1NC(=O)[C@H](CCC(N)=O)NC(=O)[C@H](CCCCN)NC(=O)[C@H](CCCCN)NC(=O)[C@H](CCCCN)NC(=O)[C@H](Cc2c[nH]c3ccccc23)NC(=O)[C@H](CCCCN)NC(=O)[C@H](CCCCN)NC(=O)[C@H](CC(C)C)NC(=O)[C@H](CC(C)C)NC1=O [BPC166W, c(LLLKKWKKKQ)] (cyclo(KKKQLLLKKW)) | 1 | 1 | 6.2 to 12.5 | 6.2 to 12.5
14 | CC(C)C[C@@H]1NC(=O)[C@H](CCC(N)=O)NC(=O)[C@H](CCCCN)NC(=O)[C@H](CCCCN)NC(=O)[C@H](CCCCN)NC(=O)[C@H](Cc2c[nH]c3ccccc23)NC(=O)[C@H](CC(C)C)NC(=O)[C@H](CCCCN)NC(=O)[C@H](CC(C)C)NC(=O)[C@H](CCCCN)NC1=O [BPC156W, c(LKLKLWKKKQ)] (cyclo(KKKQLKLKLW)) | 1 | 2 | 3.1 to 6.2 | 6.2 to 12.5
15 | CC(C)C[C@@H]1NC(=O)[C@H](CCCCN)NC(=O)[C@H](CCCCN)NC(=O)[C@H](Cc2c[nH]c3ccccc23)NC(=O)[C@H](CCCCN)NC(=O)[C@H](CC(C)C)NC(=O)[C@H](CCCCN)NC(=O)[C@H](CCCCN)NC(=O)[C@H](CCCCN)NC(=O)[C@H](CCC(N)=O)NC1=O [BPC186W, c(KKKLKWKKLQ)] (cyclo(KKKLKWKKLQ)) | 1 | 1 | 6.2 to 12.5 | 12.5 to 25
16 | CC(C)C[C@@H]1NC(=O)[C@H](CCCCN)NC(=O)[C@H](CCCCN)NC(=O)[C@H](CCC(N)=O)NC(=O)[C@H](CCCCN)NC(=O)[C@H](CCCCN)NC(=O)[C@H](CCCCN)NC(=O)[C@H](Cc2c[nH]c3ccccc23)NC(=O)[C@H](CC(C)C)NC(=O)[C@H](CC(C)C)NC1=O [BPC148W, c(KKLLLWKKKQ)] (cyclo(KKKQKKLLLW)) | 1 | 2 | 12.5 to 25 | 12.5 to 25
17 | CC(C)C[C@@H]1NC(=O)[C@H](CCCCN)NC(=O)[C@H](CC(C)C)NC(=O)[C@H](CC(C)C)NC(=O)[C@H](CCC(N)=O)NC(=O)[C@H](CCCCN)NC(=O)[C@H](CCCCN)NC(=O)[C@H](CCCCN)NC(=O)[C@H](Cc2c[nH]c3ccccc23)NC(=O)[C@H](CCCCN)NC1=O [BPC164W, c(LLKLKWKKKQ)] (cyclo(KKKQLLKLKW)) | 6 | 6 | 6.2 to 12.5 | 6.2 to 12.5
18 | CC(C)C[C@@H]1NC(=O)[C@H](CCCCN)NC(=O)[C@H](CCCCN)NC(=O)[C@H](Cc2c[nH]c3ccccc23)NC(=O)[C@H](CCCCN)NC(=O)[C@H](CCCCN)NC(=O)[C@H](CCCCN)NC(=O)[C@H](CCCCN)NC(=O)[C@H](CCCCN)NC(=O)[C@H](CCC(N)=O)NC1=O [BPC202W, c(KKKKKWKKLQ)] (cyclo(KKKKKWKKLQ)) | 0 | 1 | 12.5 to 25 | 25 to 50

Source: publication PMC6150173, “Tryptophan-Containing Cyclic Decapeptides with Activity against Plant Pathogenic Bacteria” (Molecules : A Journal of Synthetic Chemistry and Natural …, 2017)
